{"source": "patent US20180256616A1", "about": "“Compounds, Compositions and Methods for Prevention or Treatment of Liver and Lipid-Related Conditions” (Sivanaray, Inc., priority 2015, published 2018)", "key": {"[1]": {"settings": "has been reported; model of accelerated aging; cited from earlier work"}, "[2]": {"tested_on": "HFD-fed rats injected with streptozotocin (STZ) to induce type 2 diabetes (T2DM)", "experiment": "Study 3 (BVISIV Study): HFD plus STZ type 2 diabetes rats, 200 mg/kg/day", "assay_type": "in vivo"}}, "data": [{"smiles": "O=C[C@H](O)[C@@H](O)[C@@H](O)[C@H](O)CO", "note": "[BVISIV 5, Galactose]", "values": [{"measurement": "aging effect (cognitive and motor skills)", "setting": "[1]", "value": "deterioration of cognitive and motor skills"}, {"measurement": "reduction of serum ALT levels", "setting": "[2]; HFD/T2DM rats", "value": "effective"}, {"measurement": "reduction of serum LDL cholesterol levels", "setting": "[2]; HFD/T2DM rats", "value": "effective"}, {"measurement": "reduction of serum triglyceride levels", "setting": "[2]; HFD/T2DM rats", "value": "effective"}]}, {"smiles": "O=C[C@H](O)[C@@H](O)[C@@H](O)[C@H](O)C(=O)O", "note": "[BVISIV 4, Galacturonic Acid]", "values": [{"measurement": "lowering of glucose serum levels vs Group 2", "setting": "[2]; end of 6 weeks", "value": "most effective"}]}, {"smiles": "O=C[C@@H](O)[C@H](O)[C@H](O)CO", "note": "[BVISIV 6, Arabinose]", "values": [{"measurement": "comparative performance among formulations (triglycerides, LDL cholesterol, ALT)", "setting": "[2]; HFD/T2DM rats", "value": "did not perform as well as the other formulations"}]}]}
